Reference: ChEMBL document CHEMBL1156613, “Potent and selective pyrazole-based inhibitors of B-Raf kinase” (Bioorg Med Chem Lett, 2008)
≈ marks a conversion by molar mass, not a printed value. Calls of active or inactive are those of the source. No cut-off for these calls is given here.

Assays:
[1] = target: Mitogen-activated protein kinase; ERK1/ERK2 (Homo sapiens, UniProt P27361+P28482); assay: Inhibition of ERK1/2 phosphorylation in human MALME3M cells; format: cell-based
[2] = target: Serine/threonine-protein kinase B-raf (Homo sapiens, UniProt P15056); assay: Inhibition of human recombinant B-Raf by fluorescence anisotropy
[3] = Aqueous solubility at pH 6.5 by shake-flask method; format: physicochemical; settings: aqueous medium
Mus musculus = assay: Inhibition of ERK phosphorylation in human LOX tumor xenografted mouse at 25 mg/kg, po after 1 hrs by Western blot method; format: functional, organism-based; parameters: dose 25 mg/kg

Chain of Serine/threonine-protein kinase B-raf (P15056 whole entry): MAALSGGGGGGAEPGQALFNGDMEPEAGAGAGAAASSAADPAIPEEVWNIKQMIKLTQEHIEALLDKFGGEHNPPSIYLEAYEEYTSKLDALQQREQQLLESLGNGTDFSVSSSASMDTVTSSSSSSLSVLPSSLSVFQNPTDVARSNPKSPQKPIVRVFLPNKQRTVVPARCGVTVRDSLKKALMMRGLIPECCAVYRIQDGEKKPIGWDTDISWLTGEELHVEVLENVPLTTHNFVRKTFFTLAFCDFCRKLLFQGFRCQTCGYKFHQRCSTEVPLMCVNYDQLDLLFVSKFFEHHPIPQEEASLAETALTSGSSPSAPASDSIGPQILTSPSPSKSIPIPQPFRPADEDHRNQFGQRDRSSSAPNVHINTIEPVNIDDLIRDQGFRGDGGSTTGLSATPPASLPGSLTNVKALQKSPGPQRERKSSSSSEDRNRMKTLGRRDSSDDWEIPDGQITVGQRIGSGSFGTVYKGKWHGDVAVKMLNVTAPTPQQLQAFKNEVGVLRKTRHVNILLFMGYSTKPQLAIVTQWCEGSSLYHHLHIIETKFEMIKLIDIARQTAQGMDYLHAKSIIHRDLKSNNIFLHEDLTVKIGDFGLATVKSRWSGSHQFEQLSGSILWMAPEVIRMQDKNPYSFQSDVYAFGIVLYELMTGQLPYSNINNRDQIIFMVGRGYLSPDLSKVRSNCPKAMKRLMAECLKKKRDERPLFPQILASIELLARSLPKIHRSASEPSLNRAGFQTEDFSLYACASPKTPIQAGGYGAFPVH

Row | SMILES | IC50 [1] [nM] | IC50 [2] [nM] | solubility thermodynamic [3] [µg/mL] | Activity (Mus musculus)
1 | Cn1ncc(-c2ccc3c(c2)CC/C3=N\O)c1-c1ccncc1 | 165 | 0.48 |  | 
2 | O/N=C1\CCc2cc(-c3c[nH]nc3-c3ccncc3)ccc21 | 53 | 0.15 |  | 
3 | Cn1cc(-c2ccc3c(c2)CC/C3=N\O)c(-c2ccncn2)n1 | 1500 | 3.1 |  | 
4 | O/N=C1\CCc2cc(-c3cn([C@H]4CCC[C@@H]4O)nc3-c3ccncc3)ccc21 (relative stereo) | 37 | 0.33 |  | 
5 | OCC(CO)n1cc(-c2ccc3c(c2)CC/C3=N\O)c(-c2ccncc2)n1 | 171 | 0.56 |  | 
6 | O/N=C1\CCc2cc(-c3cn([C@H]4CCC[C@H]4O)nc3-c3ccncc3)ccc21 (relative stereo) | 245 | 3.91 |  | 
7 | OCCCn1cc(-c2ccc3c(c2)CC/C3=N\O)c(-c2ccncc2)n1 | 26 | 0.05 |  | 
8 | O/N=C1\CCc2cc(-c3cn(CC4CCNCC4)nc3-c3ccncc3)ccc21 | 332 | 1.2 |  | 
9 | Cn1cc(-c2ccc3c(c2)CN/C3=N/O)c(-c2ccncc2)n1 | 56 | < 2 | 590 (≈ 1930 µM) | 
10 | O/N=C1\CCc2cc(-c3cn([C@@H]4CCC[C@@H](O)C4)nc3-c3ccncc3)ccc21 (relative stereo) | 17 | 0.09 |  | 
11 | CCn1cc(-c2ccc3c(c2)CC/C3=N\O)c(-c2ccncc2)n1 | 18 | 0.57 |  | 
12 | Cn1cc(-c2ccc3c(c2)CC/C3=N\O)c(-c2ccnc(O)c2)n1 | 800 | 2.9 |  | 
13 | Cn1cc(-c2ccc3cn[nH]c3c2)c(-c2ccncc2)n1 |  | 70 |  | 
14 | Cn1cc(-c2ccc(/C(N)=N\O)cc2)c(-c2ccncc2)n1 | 20000 | 18.4 |  | 
15 | Cn1cc(-c2ccc(-c3cc[nH]n3)cc2)c(-c2ccncc2)n1 |  | 68.4 |  | 
16 | Cn1cc(-c2ccc3c(c2)CC/C3=N\O)c(-c2ccncc2)n1 | 33 | 0.02 |  | 
17 | O/N=C1\CCc2cc(-c3cn(CC4CCCNC4)nc3-c3ccncc3)ccc21 (stereo unspecified) | 154 | 0.85 |  | 
18 | O/N=C1\CCc2cc(-c3cn(C4CCNCC4)nc3-c3ccncc3)ccc21 | 9 | 0.03 | 52 (≈ 139 µM) | inactive
19 | Cn1cc(-c2ccc3c(c2)CC/C3=N\O)c(-c2cccnc2)n1 |  | 434 |  | 

Row | SMILES | IC50 [1] [nM] | IC50 [2] [nM] | solubility thermodynamic [3] [µg/mL] | Activity (Mus musculus)
20 | NCCCn1cc(-c2ccc3c(c2)CC/C3=N\O)c(-c2ccncc2)n1 | 20 | 0.39 |  | 
21 | Cc1c[nH]nc1-c1ccc(-c2cn(C)nc2-c2ccncc2)cc1 | 18000 | 4.4 |  | 
22 | CNC1CCCC(n2cc(-c3ccc4c(c3)CC/C4=N\O)c(-c3ccncc3)n2)C1 (stereo unspecified) | 18 | 0.23 |  | 
23 | Cn1cc(-c2ccc3c(c2)Cc2c[nH]nc2-3)c(-c2ccncc2)n1 | 1900 | 1.5 |  | 
24 | Cn1cc(-c2ccc3c(c2)CC/C3=N\O)c(-c2ccnc(N)c2)n1 | 1000 | 2.1 |  | 
25 | Cn1cc(-c2ccc3c(c2)C(=O)NC3)c(-c2ccncc2)n1 |  | 68.4 |  | 
26 | NCCn1cc(-c2ccc3c(c2)CC/C3=N\O)c(-c2ccncc2)n1 | 119 | 2.4 |  | 
27 | CN(C)CCCn1cc(-c2ccc3c(c2)CC/C3=N\O)c(-c2ccncc2)n1 | 122 | 0.47 |  | 
28 | O/N=C1\CCc2cc(-c3cn(C4CCOCC4)nc3-c3ccncc3)ccc21 | 48 | 0.22 |  | 
29 | O/N=C1\CCc2cc(-c3cn(C4CCCC4)nc3-c3ccncc3)ccc21 | 57 | 3.46 |  | 
30 | COCCn1cc(-c2ccc3c(c2)CC/C3=N\O)c(-c2ccncc2)n1 | 569 | 1.16 |  | 
31 | Cn1cc(-c2ccc3c(c2)CC/C3=N\O)c(-c2ccc3c(cnn3C)c2)n1 |  | 970 |  | 
32 | CN1CCC(n2cc(-c3ccc4c(c3)CC/C4=N\O)c(-c3ccncc3)n2)CC1 | 10 | 0.34 |  | 
33 | Cn1cc(-c2ccc3c(c2)CCN/C3=N/O)c(-c2ccncc2)n1 | 10000 | 16 |  | 
34 | O/N=C1\CCc2cc(-c3cn([C@@H]4CCC[C@H](O)C4)nc3-c3ccncc3)ccc21 (relative stereo) | 7 | 0.04 | 3 (≈ 7.72 µM) | Active
35 | CN(C)CCn1cc(-c2ccc3c(c2)CC/C3=N\O)c(-c2ccncc2)n1 | 607 | 4.02 |  | 
36 | Cn1cc(-c2ccc3c(c2)CC/C3=N\O)c(-c2cnco2)n1 | 2400 | 4.1 |  | 
37 | OCCn1cc(-c2ccc3c(c2)CC/C3=N\O)c(-c2ccncc2)n1 |  |  | 76 (≈ 227 µM) | Active
38 | OCC(O)Cn1cc(-c2ccc3c(c2)CC/C3=N\O)c(-c2ccncc2)n1 (stereo unspecified) | 22 | 0.87 |  | 
